How the values were obtained:
[1] = test system: Tetranychus urticae (Two-Spotted Spider Mite); experiment: Example B4: Tetranychus urticae (two-spotted spider mite), feeding/contact activity, sprayed bean leaf discs; type: in vivo; conditions: foliar, 192 h, application rate 200 ppm, mixed population (mobile stages) on sprayed bean leaf discs, 8 days after infestation
Description: Example B4: Tetranychus urticae (Two-Spotted Spider Mite): Feeding/Contact Activity
Bean leaf discs on agar in 24-well microtiter plates were sprayed with aqueous test solutions prepared from 10'000 ppm DMSO stock solutions. After drying the leaf discs were infested with a mite population of mixed ages. The samples were assessed for mortality on mixed population (mobile stages) 8 days after infestation.

[2] = test system: Plutella xylostella (Diamond Back Moth); experiment: Example B3: Plutella xylostella (diamond back moth), treated artificial diet, eggs; type: in vivo; conditions: 192 h, application rate 200 ppm, eggs on treated artificial diet, 8 days after infestation, vs untreated, read-out: effect in at least one of the two categories (mortality or growth inhibition)
Description: Example B3: Plutella xylostella (Diamond Back Moth)
24-well microtiter plates with artificial diet were treated with aqueous test solutions prepared from 10'000 ppm DMSO stock solutions by pipetting. After drying, Plutella eggs were pipetted through a plastic stencil onto a gel blotting paper and the plate was closed with it. The samples were assessed for mortality and growth inhibition in comparison to untreated samples 8 days after infestation.
The following compounds gave an effect of at least 80% in at least one of the two categories (mortality or growth inhibition) at an application rate of 200 ppm: […]

Row | SMILES | mortality at 200 ppm [1] | effect (mortality or growth inhibition) at 200 ppm [2]
1 | N#Cc1cc(C(=O)N2CCN(c3ncc(Cl)cc3Cl)CC2)c(C(F)(F)F)nc1OCc1ccc(C(F)(F)F)cc1 [P2.1, 5-[4-(3,5-dichloro-2-pyridyl)piperazine-1-carbonyl]-6-(trifluoromethyl)-2-[[4-(trifluoromethyl)phenyl]methoxy]pyridine-3-carbonitrile] | ≥ 80% | ≥ 80%
2 | Cc1nc(C2CCN(C(=O)c3cc(C#N)c(OCC4CC4(Cl)Cl)nc3C(F)(F)F)CC2)no1 (stereo not drawn) [P4.1, 2-[(2,2-Dichlorocyclopropyl)methoxy]-5-[4-(5-methyl-1,2,4-oxadiazol-3-yl)piperidine-1-carbonyl]-6-(trifluoromethyl)pyridine-3-carbonitrile] | ≥ 80% | ≥ 80%
3 | Cc1nc(C2CCN(C(=O)c3cc(C#N)c(OCc4ccc(C(F)(F)F)cc4)nc3C(F)(F)F)CC2)no1 [P1.1, 5-[4-(5-Methyl-1,2,4-oxadiazol-3-yl)piperidine-1-carbonyl]-6-(trifluoromethyl)-2-[[4-(trifluoromethyl)phenyl]methoxy]pyridine-3-carbonitrile] | ≥ 80% | –
4 | CC[S+]([O-])CC1CCN(C(=O)c2cc(C#N)c(OCc3ccc(C(F)(F)F)cc3)nc2C(F)(F)F)CC1 (stereo not drawn) [P3.4, 5-[4-(Ethylsulfinylmethyl)piperidine-1-carbonyl]-6-(trifluoromethyl)-2-[[4-(trifluoromethyl)phenyl]methoxy]pyridine-3-carbonitrile] | ≥ 80% | –
5 | Cc1nc(C2CCN(C(=O)c3cc(C#N)c(OCc4ccc(C(F)(F)F)cc4)nc3C)CC2)no1 [P1.43, 6-Methyl-5-[4-(5-methyl-1,2,4-oxadiazol-3-yl)piperidine-1-carbonyl]-2-[[4-(trifluoromethyl)phenyl]methoxy]pyridine-3-carbonitrile] | ≥ 80% | –
6 | Cc1nc(C2CCN(C(=O)c3cc(C#N)c(OCc4ccc(C(F)(F)F)cc4)nc3C(F)F)CC2)no1 [P1.48, 6-(Difluoromethyl)-5-[4-(5-methyl-1,2,4-oxadiazol-3-yl)piperidine-1-carbonyl]-2-[[4-(trifluoromethyl)phenyl]methoxy]pyridine-3-carbonitrile] | ≥ 80% | –
7 | Cc1nc(C2CCN(C(=O)c3cc(C(N)=S)c(OCc4ccc(C(F)(F)F)cc4)nc3C(F)(F)F)CC2)no1 [P6.1, 5-[4-(5-Methyl-1,2,4-oxadiazol-3-yl)piperidine-1-carbonyl]-6-(trifluoromethyl)-2-[[4-(trifluoromethyl)phenyl]methoxy]pyridine-3-carbothioamide] | ≥ 80% | –
